Experimental data reported in the NIST ThermoML archive (doi:10.1021/je301282p).

How the values were obtained:
[1] = 308.15 K, Drop volume
[2] = xn = mol fraction of the nth substance listed; conditions: 308.15 K, Drop volume

CCCCCCCCCC [decane]
Conditions	surface tension liquid-gas [mN/m]
[1]	22.1

Cc1ccc(C)cc1 [1,4-dimethylbenzene]
Conditions	surface tension liquid-gas [mN/m]
[1]	26.29

CCOC(=O)OCC [diethyl carbonate] + CCCCCCCCCC
[2]
Conditions	surface tension liquid-gas [mN/m]
x1 = 0.0512	21.9
x1 = 0.0983	21.84
x1 = 0.1997	21.75
x1 = 0.2968	21.78
x1 = 0.406	21.84
x1 = 0.499	21.88
x1 = 0.5621	21.96
x1 = 0.5994	21.99
x1 = 0.6966	22.19
x1 = 0.7951	22.49
x1 = 0.9018	23.1
x1 = 0.9511	23.5

COC(=O)OC [dimethyl carbonate]
Conditions	surface tension liquid-gas [mN/m]
[1]	26.55

CCOC(=O)OCC [diethyl carbonate]
Conditions	surface tension liquid-gas [mN/m]
[1]	24.02

CCOC(=O)OCC [diethyl carbonate] + Cc1ccc(C)cc1
[2]
Conditions	surface tension liquid-gas [mN/m]
x1 = 0.0995	25.98
x1 = 0.2009	25.68
x1 = 0.2985	25.42
x1 = 0.3971	25.18
x1 = 0.4956	24.94
x1 = 0.5433	24.83
x1 = 0.6007	24.7
x1 = 0.6457	24.6
x1 = 0.6995	24.49
x1 = 0.7986	24.3
x1 = 0.899	24.12
x1 = 0.9497	24.06

Cc1ccc(C)cc1 [1,4-dimethylbenzene] + COC(=O)OC
[2]
Conditions	surface tension liquid-gas [mN/m]
x2 = 0.0503	26.19
x2 = 0.1937	25.97
x2 = 0.2988	25.84
x2 = 0.4013	25.76
x2 = 0.5016	25.7
x2 = 0.6032	25.67
x2 = 0.7029	25.67
x2 = 0.7964	25.74
x2 = 0.8945	25.98
x2 = 0.9442	26.13

COC(=O)OC [dimethyl carbonate] + CCCCCCCC
[2]
Conditions	surface tension liquid-gas [mN/m]
x1 = 0.0503	19.8
x1 = 0.0976	19.78
x1 = 0.196	19.85
x1 = 0.2941	19.93
x1 = 0.3969	20.09
x1 = 0.495	20.25
x1 = 0.5455	20.39
x1 = 0.5971	20.54
x1 = 0.6977	20.8
x1 = 0.7977	21.47
x1 = 0.8983	23.04
x1 = 0.9492	24.53

Cc1ccc(C)cc1 [1,4-dimethylbenzene] + CCCCCCCCCC
[2]
Conditions	surface tension liquid-gas [mN/m]
x1 = 0.1047	22.18
x1 = 0.2152	22.39
x1 = 0.2977	22.57
x1 = 0.3945	22.79
x1 = 0.4993	23.11
x1 = 0.549	23.28
x1 = 0.5997	23.46
x1 = 0.7004	23.88
x1 = 0.8018	24.47
x1 = 0.9004	25.2
x1 = 0.9501	25.67

CCOC(=O)OCC [diethyl carbonate] + CCCCCCCC
[2]
Conditions	surface tension liquid-gas [mN/m]
x1 = 0.049	19.83
x1 = 0.1008	19.89
x1 = 0.2	19.91
x1 = 0.2969	20.05
x1 = 0.3972	20.26
x1 = 0.4971	20.5
x1 = 0.5495	20.63
x1 = 0.5991	20.79
x1 = 0.695	21.16
x1 = 0.7938	21.7
x1 = 0.8978	22.63
x1 = 0.9504	23.33

Cc1ccc(C)cc1 [1,4-dimethylbenzene] + CCCCCCCC
[2]
Conditions	surface tension liquid-gas [mN/m]
x1 = 0.0488	20.02
x1 = 0.109	20.25
x1 = 0.1953	20.52
x1 = 0.2973	20.96
x1 = 0.3959	21.41
x1 = 0.4978	21.91
x1 = 0.5503	22.2
x1 = 0.5935	22.46
x1 = 0.6966	23.11
x1 = 0.8004	23.93
x1 = 0.9017	24.92
x1 = 0.9504	25.5

CCCCCCCCCC [decane] + COC(=O)OC
[2]
Conditions	surface tension liquid-gas [mN/m]
x2 = 0.0512	21.95
x2 = 0.09	21.92
x2 = 0.2006	21.9
x2 = 0.2853	21.92
x2 = 0.3971	21.97
x2 = 0.4949	22.11
x2 = 0.5987	22.01
x2 = 0.6988	22.18
x2 = 0.7971	22.54
x2 = 0.8983	23.81
x2 = 0.9505	24.82

CCCCCCCC [octane]
Conditions	surface tension liquid-gas [mN/m]
[1]	19.9
